# Measurements taken from patent US20150223465A1, “COMPOSITION CONTAINING 3-CYCLOPROPYL-1-ENYL-PROPANOIC ACID SALTS AND A CARRIER” (Yissum Research Development Company of the Hebrew …, priority 2012, published 2015).
# What was measured:
# carnation flowers = assay: Loading 14-18 h with CPAS, 0-72 h in tap water, then ethylene for 24 h; vase life assessment; assay type: in vivo, carnation (Dianthus caryophyllus); conditions: for protection from ethylene-induced senescence: loading 14-18 h, 1.0 ppm ethylene 24 h
# Method: Carnation flower stems were cut under tap water to the desired lengths (36 and 55 cm). Four flowers per treatment, in groups of two flowers each, were loaded for 14-18 hours in 20 mL of treatment solutions containing 0, 30, 60 and 120 mg L^−1 CPAS in either an aqueous solution containing sodium carbonate/sodium bicarbonate buffer (40 mM, pH=9.5) and 0.025% Tween 20 or an aqueous solution containing K-Phosphate Buffer (40 mM, pH=7.8) and 0.025% Tween 20. At the end of CPAS loading (14-18 hours), groups of treated flowers were transferred into tap water for 0, 24, 48 and 72 hours. The cut flowers were then exposed to 1.0 ppm ethylene for 24 hours. At the end of the ethylene treatment, the flowers were ventilated and left under controlled conditions for additional 11, 10, 9, 8 days, respectively, for vase life assessment. Pictures of were taken 13 days after beginning of the experiment. It is noted that the carnation flowers tested were highly sensitive to ethylene, and therefore exposure to ethylene at an amount of 1.0 ppm was effected.
# cut carnation flowers = assay: Water uptake of treated cut flowers; conditions: 60 or 120 ppm CPAS in 20 mM NaHCO3 pH 8.2; 36 cm stems; 48 hours after termination of ethylene exposure (2 ppm, 24 h)
# Method: Water Uptake: The uptake of water by cut flowers was measured after CPAS loading and after ethylene exposure (exposure to 2 ppm ethylene for 24 hours, unless otherwise indicated). The aqueous treatment solution was maintained at 20 mL by addition of tap water after each treatment.
# Aqueous treatment solutions of CPAS were prepared and tested, each of which contained 0, 60 or 120 ppm of CPAS in 20 mM NaHCO3 (pH 8.2). Cut flowers (36 cm long stems) were treated according to the treatment procedure described above.
smiles,measurement,setting,value
"O=C([O-])CCC1=CC1.[Na+] [CPAS, 3-cyclopropyl-1-enyl-propanoic acid salt]",protection from ethylene-induced senescence,"carnation flowers; CPAS 60 and 120 mg L^−1 in K-Phosphate buffer 40 mM pH 7.8, 0.025% Tween 20",almost no protection
same,protection from ethylene-induced senescence,"carnation flowers; CPAS 60 and 120 mg L^−1 in sodium carbonate/sodium bicarbonate buffer 40 mM pH 9.5, 0.025% Tween 20",significantly protected
same,protection with ethylene treatment 2 and 3 days after pretreatment,carnation flowers; CPAS at the two higher concentrations in Na-Carbonate buffer,more protected as the incubation time increases
same,resistance to ethylene-induced flower senescence after pretreatment,carnation flowers; ethylene exposure 3 days after pretreatment with CPAS,resistant
same,water uptake of flowers,cut carnation flowers,increased water uptake
